How the values were obtained:
[1] = target: MAP kinase-activated protein kinase 2 (Homo sapiens, UniProt P49137)
Description: Inhibition of human recombinant MK2

THP-1 = assay: Inhibition of LPS-stimulated TNFalpha production in human THP1 cells
Aurora kinase B = Aurora kinase B (Homo sapiens, UniProt Q96GD4); assay: Inhibition of Aurora B
[2] = target: Casein kinase I isoform gamma-1 (Homo sapiens, UniProt Q9HCP0); assay: Inhibition of CK1-gamma1
[3] = target: Mitogen-activated protein kinase 1 (Homo sapiens, UniProt P28482); assay: Inhibition of ERK2
[4] = target: Tyrosine-protein kinase Fyn (Homo sapiens, UniProt P06241); assay: Inhibition of FYN
[5] = target: T1, Inhibitor of nuclear factor kappa-B kinase subunit alpha (Homo sapiens, UniProt O15111); assay: Inhibition of IKKalpha
T1 sequence (O15111 whole entry): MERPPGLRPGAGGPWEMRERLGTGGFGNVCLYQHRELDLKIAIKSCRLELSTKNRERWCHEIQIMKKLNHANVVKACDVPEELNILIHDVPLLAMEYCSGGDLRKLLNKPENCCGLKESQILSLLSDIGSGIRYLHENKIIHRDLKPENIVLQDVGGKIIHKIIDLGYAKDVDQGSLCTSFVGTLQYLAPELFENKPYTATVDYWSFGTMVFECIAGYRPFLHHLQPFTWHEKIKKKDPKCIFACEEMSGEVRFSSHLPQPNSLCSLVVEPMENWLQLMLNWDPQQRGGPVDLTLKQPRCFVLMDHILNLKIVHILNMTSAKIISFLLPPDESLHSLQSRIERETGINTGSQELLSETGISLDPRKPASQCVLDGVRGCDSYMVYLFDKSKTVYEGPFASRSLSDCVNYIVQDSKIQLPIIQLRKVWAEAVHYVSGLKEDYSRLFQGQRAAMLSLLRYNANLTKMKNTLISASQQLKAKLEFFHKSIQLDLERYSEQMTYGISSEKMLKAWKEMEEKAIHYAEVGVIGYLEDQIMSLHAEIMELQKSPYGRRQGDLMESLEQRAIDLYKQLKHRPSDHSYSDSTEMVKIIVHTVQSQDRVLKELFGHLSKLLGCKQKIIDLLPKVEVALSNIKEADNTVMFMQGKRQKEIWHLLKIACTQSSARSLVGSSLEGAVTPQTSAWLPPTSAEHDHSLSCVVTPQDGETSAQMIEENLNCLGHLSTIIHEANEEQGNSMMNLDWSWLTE

[6] = target: Mitogen-activated protein kinase 14 (Homo sapiens, UniProt Q16539); assay: Inhibition of p38alpha
[7] = target: Platelet-derived growth factor receptor alpha (Homo sapiens, UniProt P16234); assay: Inhibition of PDGFRalpha
[8] = target: Protein kinase C alpha type (Homo sapiens, UniProt P17252); assay: Inhibition of PKCalpha
[9] = target: Rho-associated protein kinase 1 (Homo sapiens, UniProt Q13464); assay: Inhibition of ROCK1
[10] = target: Ribosomal protein S6 kinase alpha-1 (Homo sapiens, UniProt Q15418); assay: Inhibition of RSK1
[11] = target: Proto-oncogene tyrosine-protein kinase Src (Homo sapiens, UniProt P12931); assay: Inhibition of SRC
Cytochrome P450 3A4 = Cytochrome P450 3A4 (Homo sapiens, UniProt P08684); assay: Inhibition of CYP3A4; format: ADME
Cytochrome P450 2C9 = Cytochrome P450 2C9 (Homo sapiens, UniProt P11712); assay: Inhibition of CYP2C9; format: ADME
Cytochrome P450 2D6 = Cytochrome P450 2D6 (Homo sapiens, UniProt P10635); assay: Inhibition of CYP2D6; format: ADME
CYP3A4 = CYP3A4 (Homo sapiens, UniProt P08684); assay: Inhibition of CYP3A4 at 3 uM; format: ADME
CYP2C9 = CYP2C9 (Homo sapiens, UniProt P11712); assay: Inhibition of CYP2C9 at 3 uM; format: ADME
CYP2D6 = CYP2D6 (Homo sapiens, UniProt P10635); assay: Inhibition of CYP2D6 at 3 uM; format: ADME
Chain of CYP2D6 (P10635 whole entry): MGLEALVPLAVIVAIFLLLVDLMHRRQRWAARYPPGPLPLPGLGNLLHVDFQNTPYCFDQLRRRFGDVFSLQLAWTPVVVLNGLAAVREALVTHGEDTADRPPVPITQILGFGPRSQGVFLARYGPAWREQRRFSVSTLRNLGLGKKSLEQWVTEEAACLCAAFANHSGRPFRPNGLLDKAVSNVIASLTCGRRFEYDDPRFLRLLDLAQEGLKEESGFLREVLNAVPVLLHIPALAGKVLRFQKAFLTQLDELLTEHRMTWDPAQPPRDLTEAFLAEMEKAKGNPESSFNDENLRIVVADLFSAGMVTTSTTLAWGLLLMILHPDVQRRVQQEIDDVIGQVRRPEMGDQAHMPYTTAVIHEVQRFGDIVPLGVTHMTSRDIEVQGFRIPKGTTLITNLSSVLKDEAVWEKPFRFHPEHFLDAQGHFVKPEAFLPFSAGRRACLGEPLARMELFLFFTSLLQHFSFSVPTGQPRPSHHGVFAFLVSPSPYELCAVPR

Chain of Ribosomal protein S6 kinase alpha-1 (Q15418 whole entry): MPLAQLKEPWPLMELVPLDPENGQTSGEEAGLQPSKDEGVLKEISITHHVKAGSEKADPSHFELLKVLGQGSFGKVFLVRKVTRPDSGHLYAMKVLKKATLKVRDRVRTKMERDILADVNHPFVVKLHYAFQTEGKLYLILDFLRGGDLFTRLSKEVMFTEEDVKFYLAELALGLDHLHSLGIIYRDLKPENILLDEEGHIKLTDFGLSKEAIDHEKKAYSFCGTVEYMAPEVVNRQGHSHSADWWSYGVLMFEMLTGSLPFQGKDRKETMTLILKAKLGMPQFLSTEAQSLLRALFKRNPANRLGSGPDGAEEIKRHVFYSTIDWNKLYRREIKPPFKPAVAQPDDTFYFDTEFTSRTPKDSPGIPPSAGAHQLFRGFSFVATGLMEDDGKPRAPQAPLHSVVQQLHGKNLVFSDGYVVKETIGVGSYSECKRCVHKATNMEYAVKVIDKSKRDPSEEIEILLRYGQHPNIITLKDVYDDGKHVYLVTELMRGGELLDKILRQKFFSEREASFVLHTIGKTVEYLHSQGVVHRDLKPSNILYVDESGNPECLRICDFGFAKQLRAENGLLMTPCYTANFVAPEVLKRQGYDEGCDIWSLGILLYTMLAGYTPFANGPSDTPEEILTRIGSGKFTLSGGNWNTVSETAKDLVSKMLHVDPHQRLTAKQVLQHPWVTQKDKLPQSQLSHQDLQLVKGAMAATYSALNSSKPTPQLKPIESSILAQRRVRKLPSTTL
Chain of Cytochrome P450 2D6 (P10635 whole entry): as the sequence (P10635 whole entry) above
Chain of Cytochrome P450 2C9 (P11712 whole entry): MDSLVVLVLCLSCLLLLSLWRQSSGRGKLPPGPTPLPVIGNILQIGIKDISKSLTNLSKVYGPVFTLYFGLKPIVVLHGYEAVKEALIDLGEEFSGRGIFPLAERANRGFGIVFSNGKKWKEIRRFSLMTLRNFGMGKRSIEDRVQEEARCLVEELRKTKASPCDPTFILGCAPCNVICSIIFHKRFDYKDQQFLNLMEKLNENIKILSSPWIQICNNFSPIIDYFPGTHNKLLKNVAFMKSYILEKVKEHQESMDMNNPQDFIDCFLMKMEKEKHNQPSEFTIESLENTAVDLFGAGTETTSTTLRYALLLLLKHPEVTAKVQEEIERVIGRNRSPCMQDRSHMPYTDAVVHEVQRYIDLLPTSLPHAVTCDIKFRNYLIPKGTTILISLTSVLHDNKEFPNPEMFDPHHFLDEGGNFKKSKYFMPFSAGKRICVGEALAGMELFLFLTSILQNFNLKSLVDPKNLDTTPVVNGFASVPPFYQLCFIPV
Chain of Tyrosine-protein kinase Fyn (P06241 whole entry): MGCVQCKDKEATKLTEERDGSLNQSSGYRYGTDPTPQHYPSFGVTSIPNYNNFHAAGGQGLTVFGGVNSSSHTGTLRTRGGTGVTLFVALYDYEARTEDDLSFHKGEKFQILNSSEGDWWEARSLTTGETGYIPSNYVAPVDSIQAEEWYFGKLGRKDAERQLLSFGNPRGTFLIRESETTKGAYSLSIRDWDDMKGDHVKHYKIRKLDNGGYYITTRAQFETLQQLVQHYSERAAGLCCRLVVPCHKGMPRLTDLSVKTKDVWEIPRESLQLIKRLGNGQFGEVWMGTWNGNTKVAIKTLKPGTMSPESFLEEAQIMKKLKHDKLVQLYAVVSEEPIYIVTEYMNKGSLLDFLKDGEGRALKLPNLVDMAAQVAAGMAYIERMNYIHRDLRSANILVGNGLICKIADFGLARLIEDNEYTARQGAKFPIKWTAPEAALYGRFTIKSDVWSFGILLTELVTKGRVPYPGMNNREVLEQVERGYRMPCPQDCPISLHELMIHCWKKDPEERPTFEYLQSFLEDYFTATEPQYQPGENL
Chain of Rho-associated protein kinase 1 (Q13464 whole entry): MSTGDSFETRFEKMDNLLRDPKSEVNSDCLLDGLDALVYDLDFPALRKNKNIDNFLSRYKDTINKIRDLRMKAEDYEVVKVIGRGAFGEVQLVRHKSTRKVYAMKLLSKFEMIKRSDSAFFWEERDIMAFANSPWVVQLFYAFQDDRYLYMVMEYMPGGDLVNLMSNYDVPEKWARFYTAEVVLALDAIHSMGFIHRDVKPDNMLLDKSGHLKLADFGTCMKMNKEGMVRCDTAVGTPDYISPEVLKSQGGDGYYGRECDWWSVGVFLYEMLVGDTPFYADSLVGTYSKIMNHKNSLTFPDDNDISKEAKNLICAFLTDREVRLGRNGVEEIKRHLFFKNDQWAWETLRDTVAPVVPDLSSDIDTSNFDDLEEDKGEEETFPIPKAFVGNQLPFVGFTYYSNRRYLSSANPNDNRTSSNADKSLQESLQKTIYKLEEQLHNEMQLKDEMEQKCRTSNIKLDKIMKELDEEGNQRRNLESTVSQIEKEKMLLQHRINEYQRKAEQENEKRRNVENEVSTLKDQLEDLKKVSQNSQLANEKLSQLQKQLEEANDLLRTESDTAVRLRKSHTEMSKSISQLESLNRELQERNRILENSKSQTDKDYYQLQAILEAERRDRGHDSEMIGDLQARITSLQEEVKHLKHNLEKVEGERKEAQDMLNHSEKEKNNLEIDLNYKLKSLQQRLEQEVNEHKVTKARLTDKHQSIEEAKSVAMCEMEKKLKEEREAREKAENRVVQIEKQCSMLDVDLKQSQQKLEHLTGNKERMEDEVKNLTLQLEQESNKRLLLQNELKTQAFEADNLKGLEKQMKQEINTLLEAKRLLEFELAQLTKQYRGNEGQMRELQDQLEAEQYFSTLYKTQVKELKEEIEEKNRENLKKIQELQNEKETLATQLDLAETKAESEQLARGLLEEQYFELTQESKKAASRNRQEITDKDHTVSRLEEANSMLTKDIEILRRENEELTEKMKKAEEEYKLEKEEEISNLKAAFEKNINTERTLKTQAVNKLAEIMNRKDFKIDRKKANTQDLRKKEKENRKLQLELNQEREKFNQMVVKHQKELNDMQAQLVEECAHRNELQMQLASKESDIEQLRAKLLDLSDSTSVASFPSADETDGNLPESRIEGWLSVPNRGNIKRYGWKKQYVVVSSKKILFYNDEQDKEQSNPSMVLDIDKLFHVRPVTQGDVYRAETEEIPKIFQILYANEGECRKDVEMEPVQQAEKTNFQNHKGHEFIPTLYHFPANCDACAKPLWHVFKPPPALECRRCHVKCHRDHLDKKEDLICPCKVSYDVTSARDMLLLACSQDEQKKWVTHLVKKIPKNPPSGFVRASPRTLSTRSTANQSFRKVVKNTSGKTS
Chain of Cytochrome P450 3A4 (P08684 whole entry): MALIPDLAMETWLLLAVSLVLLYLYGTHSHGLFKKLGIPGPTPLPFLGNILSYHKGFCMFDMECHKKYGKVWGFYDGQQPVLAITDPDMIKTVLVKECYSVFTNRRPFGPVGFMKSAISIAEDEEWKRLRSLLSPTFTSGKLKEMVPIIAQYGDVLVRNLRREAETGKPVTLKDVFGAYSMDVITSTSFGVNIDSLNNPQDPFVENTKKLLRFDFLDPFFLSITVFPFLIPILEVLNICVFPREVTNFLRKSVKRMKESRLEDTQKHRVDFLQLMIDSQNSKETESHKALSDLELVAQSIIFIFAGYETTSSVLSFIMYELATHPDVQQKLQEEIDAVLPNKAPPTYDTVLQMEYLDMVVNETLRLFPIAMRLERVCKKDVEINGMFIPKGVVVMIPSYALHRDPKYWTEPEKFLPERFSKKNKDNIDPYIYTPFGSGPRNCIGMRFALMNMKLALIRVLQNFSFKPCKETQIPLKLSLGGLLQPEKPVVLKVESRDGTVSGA
Chain of CYP3A4 (P08684 whole entry): as above

Row | Structure (SMILES) | IC50 [1] | IC50 (THP-1) | IC50 (Aurora kinase B) | IC50 [2] | IC50 [3] | IC50 [4] | IC50 [5] | IC50 [6] | IC50 [7] | IC50 [8] | IC50 [10] | IC50 [11] | other results
1 | NC(=O)C(Nc1c(Nc2ccncc2)c(=O)c1=O)c1cccc(O)c1 (configuration not stated) | 0.39 µM | 17 µM | 1.4 µM | 0.16 µM | 4.2 µM | > 50 µM | > 50 µM | > 50 µM | 11.1 µM | 33.6 µM | 0.29 µM | > 50 µM | IC50 (Cytochrome P450 3A4): > 10 µM; IC50 (Cytochrome P450 2C9): 6.5 µM; IC50 (Cytochrome P450 2D6): > 10 µM; IC50 [9]: 0.06 µM
2 | C[C@@H](Nc1c(Nc2cccnc2)c(=O)c1=O)c1ccccc1 | > 100 µM |  |  |  |  |  |  |  |  |  |  |  | inhibition at 3 µM (CYP3A4): 16%; inhibition at 3 µM (CYP2C9): 1%; inhibition at 3 µM (CYP2D6): 26%
3 | C[C@@H](Nc1c(Nc2ccncc2)c(=O)c1=O)c1ccccc1 |  | 10.8 µM |  |  |  | > 50 µM | > 50 µM | > 50 µM | 40.5 µM | > 50 µM | 0.81 µM | > 50 µM | IC50 (Cytochrome P450 3A4): 1.3 µM; IC50 (Cytochrome P450 2C9): 0.6 µM; IC50 (Cytochrome P450 2D6): 3.3 µM
4 | C[C@@H](Nc1c(Nc2ccnc(Cl)c2)c(=O)c1=O)c1ccccc1 | > 100 µM |  |  |  |  |  |  |  |  |  |  |  | 
5 | C[C@@H](Nc1c(Nc2ccnc(Nc3ccncn3)c2)c(=O)c1=O)c1ccccc1 |  | 1.1 µM |  |  |  |  |  |  |  |  |  |  | 
6 | CC(Nc1c(Nc2ccncc2)c(=O)c1=O)c1cccc(O)c1 (configuration not stated) |  | 34 µM |  |  |  |  |  |  |  |  |  |  | 
7 | C[C@@H](Nc1c(Nc2ccn[nH]2)c(=O)c1=O)c1ccccc1 | > 100 µM |  |  |  |  |  |  |  |  |  |  |  | IC50 (Cytochrome P450 3A4): 40 µM; IC50 (Cytochrome P450 2C9): 12 µM
8 | C[C@H](c1ccccc1)N(C)c1c(Nc2ccncc2)c(=O)c1=O | > 100 µM |  |  |  |  |  |  |  |  |  |  |  | 

More lines, main results first:

Row | IC50 [1] | IC50 (THP-1) | IC50 (Aurora kinase B) | IC50 [2] | IC50 [3] | IC50 [4] | IC50 [5] | IC50 [6] | IC50 [7] | IC50 [8] | IC50 [10] | IC50 [11] | Structure (SMILES) | other results
9 | > 100 µM |  |  |  |  |  |  |  |  |  |  |  | C[C@@H](Nc1c(Nc2ccncn2)c(=O)c1=O)c1ccccc1 | 
10 | > 100 µM |  |  |  |  |  |  |  |  |  |  |  | C[C@@H](Nc1c(N(C)c2ccncc2)c(=O)c1=O)c1ccccc1 | 
11 | 5.3 µM | 2.1 µM | 8.8 µM | 4.9 µM | 35 µM | > 50 µM | > 50 µM | > 50 µM | 27.1 µM | > 50 µM | > 50 µM | > 50 µM | C[C@@H](Nc1c(Nc2ccnc(-c3ccco3)c2)c(=O)c1=O)c1ccccc1 | IC50 [9]: > 50 µM
12 | 4.5 µM | > 40 µM | 6 µM | 0.52 µM | 6.3 µM | > 50 µM | > 50 µM | > 50 µM | 44 µM |  | 0.78 µM | > 50 µM | NC(=O)C(Nc1c(Nc2ccncc2)c(=O)c1=O)c1ccccc1 (configuration not stated) | IC50 (Cytochrome P450 3A4): 8.6 µM; IC50 (Cytochrome P450 2C9): 5.1 µM; IC50 (Cytochrome P450 2D6): > 10 µM
13 | 5.8 µM | 2.2 µM | > 50 µM | > 50 µM | > 50 µM | > 50 µM | > 50 µM | 21.7 µM | > 50 µM | > 50 µM | > 50 µM | > 50 µM | C[C@@H](Nc1c(Nc2ccnc(-c3ccccc3F)c2)c(=O)c1=O)c1ccccc1 | IC50 [9]: > 50 µM
14 | 5.4 µM |  | 10.8 µM | 11.6 µM | > 50 µM | 15.3 µM | > 50 µM | > 50 µM | 36.2 µM | > 50 µM | > 50 µM | > 50 µM | C[C@@H](Nc1c(Nc2ccnc(-c3ccsc3)c2)c(=O)c1=O)c1ccccc1 | IC50 [9]: > 50 µM

Reference: ChEMBL document CHEMBL1136863, “Identification and SAR of squarate inhibitors of mitogen activated protein kinase-activated protein kinase 2 (MK-2)” (Bioorg Med Chem, 2009)
